Literature values in patent US11747352B2 (Concordia University, Inc., priority 2017, dated 2023).
Like-named read-outs stand apart in the source and are kept apart here.

Tests used:
plasma protein = details: cited from earlier work; for Protein binding %: Table of Tyrosine Kinase Inhibitor Substrates
[1] = cited from earlier work; for F %: Table of Tyrosine Kinase Inhibitor Substrates, CYP3A4
[2] = cited from earlier work; for T½: Table of Tyrosine Kinase Inhibitor Substrates

CC(=O)[C@H]1CC[C@H]2[C@@H]3CCC4=CC(=O)CC[C@]4(C)[C@H]3CC[C@]12C [Progesterone]
PLASMA PROTEIN BINDING (plasma protein; Table CYP2C19): 96-99% ^

CNCC[C@H](Oc1cccc2ccccc12)c1cccs1 [Duloxetine]
ORAL BIOAVAILABILITY ([1]; Table CYP2D6): 30-80% ^

O=C(NCC1CCCCN1)c1cc(OCC(F)(F)F)ccc1OCC(F)(F)F (stereo not shown) [Flecainide]
ORAL BIOAVAILABILITY ([1]; Table CYP2D6): 70-95% ^

CC(C)NCC(O)COc1cccc2ccccc12 (stereo not shown) [Propranolol]
HALF LIFE ([2]; Table CYP2D6): 3 to 6 h | ORAL BIOAVAILABILITY ([1]; Table CYP2D6): 30-70% ^

CCOC(=O)C1=C(COCCN)NC(C)=C(C(=O)OC)C1c1ccccc1Cl (stereo not shown) [Amlodipine]
ORAL BIOAVAILABILITY ([1]; Table CYP3A4): 64-90% ^

COc1ccc2c(c1)N(C[C@H](C)CN(C)C)c1ccccc1S2 [Levomepromazine]
ORAL BIOAVAILABILITY ([1]; Table CYP2D6): 50-60% ^

O=C1Nc2ccc(Cl)cc2[C@@](C#CC2CC2)(C(F)(F)F)O1 [Efavirenz]
ORAL BIOAVAILABILITY ([1]; Table CYP3A4): 40-45% ^

COC(=O)C1=C(C)NC(C)=C(C(=O)OC(C)C)C1c1cccc2nonc12 (stereo not shown) [Isradipine]
ORAL BIOAVAILABILITY ([1]; Table CYP3A4, CR): CR: 15-24% ^ | ORAL BIOAVAILABILITY ([1]; Table CYP3A4, IR): IR: 90-95% ^

OC(CNCC(O)C1CCc2cc(F)ccc2O1)C1CCc2cc(F)ccc2O1 (stereo not shown) [Nebivolol]
HALF LIFE ([2]; Table CYP2D6): 12 to 19 h | ORAL BIOAVAILABILITY ([1]; Table CYP2D6): 12-96% ^

CN(C)CCC=C1c2ccccc2CCc2ccccc21 [Amitriptyline]
HALF LIFE ([2]; Table CYP1A2): ~13 to 36 h | HALF LIFE ([2]; Table CYP2D6): ~13 to 36 h | ORAL BIOAVAILABILITY ([1]; Table CYP2C9): 30-60% ^ | ORAL BIOAVAILABILITY ([1]; Table CYP2D6): ~43-46% ^

C#Cc1cccc(Nc2ncnc3cc(OCCOC)c(OCCOC)cc23)c1 [Erlotinib]
Protein binding % (plasma protein): 95%

CCOc1cc(CC(=O)N[C@@H](CC(C)C)c2ccccc2N2CCCCC2)ccc1C(=O)O [Repaglinide]
ORAL BIOAVAILABILITY ([1]; Table CYP3A4): 55%

CC(C)(O)c1ccccc1CC[C@@H](SCC1(CC(=O)O)CC1)c1cccc(/C=C/c2ccc3ccc(Cl)cc3n2)c1 [Montelukast]
HALF LIFE ([2]; Table CYP2C9): 2.7 to 5.5 h | PLASMA PROTEIN BINDING (plasma protein; Table CYP2C9): >99% | ORAL BIOAVAILABILITY ([1]; Table CYP2C9): 64-73% ^

CNC1(c2ccccc2Cl)CCCCC1=O (stereo not shown) [Ketamine]
HALF LIFE ([2]; in vivo): 2 to 3 h | BIOAV[…] ([1]; in vivo, im): IM: 90-93%, PO: 16%

COC(=O)N[C@H](C(=O)N[C@@H](Cc1ccccc1)[C@@H](O)CN(Cc1ccc(-c2ccccn2)cc1)NC(=O)[C@@H](NC(=O)OC)C(C)(C)C)C(C)(C)C [Atazanavir]
ORAL BIOAVAILABILITY ([1]; Table CYP3A4): 60-68% ^

CC(N)Cc1ccccc1 (stereo not shown) [Amphetamine]
ORAL BIOAVAILABILITY ([1]; in vivo, po): 100%

CN1C(C(=O)Nc2ccccn2)=C(O)c2sc(Cl)cc2S1(=O)=O [Lomoxicam]
HALF LIFE ([2]; in vivo): 4 h | BIOAVAILABILITY IM ([1]; in vivo, im): IM: 87%

CCCC1O[C@@H]2C[C@H]3[C@@H]4CCC5=CC(=O)C=C[C@]5(C)[C@H]4[C@@H](O)C[C@]3(C)[C@]2(C(=O)CO)O1 (stereo partly shown) [Budesonide]
ORAL BIOAVAILABILITY ([1]; Table CYP3A4): 9-21%^

COc1cc(N)c(Cl)cc1C(=O)NC1CCN(CCCOc2ccc(F)cc2)CC1OC (stereo not shown) [Cisapride]
ORAL BIOAVAILABILITY ([1]; Table CYP3A4): 35-65% ^

COc1ccc2c3c1O[C@H]1C(=O)CC[C@@]4(O)[C@@H](C2)N(C)CC[C@]314 [Oxycodone]
ORAL BIOAVAILABILITY ([1]; Table CYP2D6): 60-87% ^ | ORAL BIOAVAILABILITY ([1]; Table CYP3A4): 60-87% ^

COc1cc2ncnc(Nc3ccc(F)c(Cl)c3)c2cc1OCCCN1CCOCC1 [Gefitinib]
T½ [2]: 6 to 49 h | Protein binding % (plasma protein): 90% | F % [1]: 59%

CCOC(=O)C1=C(C)NC(C)=C(C(=O)OC)C1c1cccc(Cl)c1Cl (stereo not shown) [Felodipine]
ORAL BIOAVAILABILITY ([1]; Table CYP3A4): 13-20% ^

[H]/N=C(/N)N/C(=N/[H])NCCc1ccccc1 [Phenformin]
HALF LIFE ([2]; Table CYP2D6): 4 to 13 h | ORAL BIOAVAILABILITY ([1]; Table CYP2D6): 40-60% ^

Fc1ccccc1C1=NCC(=S)N(CC(F)(F)F)c2ccc(Cl)cc21 [Quazepam]
ORAL BIOAVAILABILITY ([1]; Table CYP3A4): 29-35% ^

C#C[C@]1(O)CC[C@H]2[C@@H]3CCc4cc(O)ccc4[C@H]3CC[C@@]21C [Ethinyl Estradiol]
ORAL BIOAVAILABILITY ([1]; Table CYP3A4): 38-48% ^

CNCCC(Oc1ccc(C(F)(F)F)cc1)c1ccccc1 (stereo not shown) [Fluoxetine]
HALF LIFE ([2]; Table CYP2C9): 96 to 140 h | HALF LIFE ([2]; Table CYP2D6): 96 to 140 h | ORAL BIOAVAILABILITY ([1]; Table CYP2C9): 60-80% ^ | ORAL BIOAVAILABILITY ([1]; Table CYP2D6): 60-80% ^

CO[C@H]1C[C@@H]2CC[C@@H](C)[C@@](O)(O2)C(=O)C(=O)N2CCCC[C@H]2C(=O)O[C@H]([C@H](C)C[C@@H]2CC[C@@H](O)[C@H](OC)C2)CC(=O)[C@H](C)/C=C(\C)[C@@H](O)[C@@H](OC)C(=O)[C@H](C)C[C@H](C)/C=C/C=C/C=C/1C [Sirolimus]
ORAL BIOAVAILABILITY ([1]; Table CYP3A4): 14-27% ^

CCCCCc1cc(O)c2c(c1)OC(C)(C)[C@@H]1CCC(C)=C[C@@H]21 [THC]
HALF LIFE ([2]; Table CYP2C9): 1.6 to 59 h | ORAL BIOAVAILABILITY ([1]; Table CYP2C9): 10-35% ^

CN(C)CCCN1c2ccccc2CCc2ccccc21 [Imipramine]
ORAL BIOAVAILABILITY ([1]; Table CYP2D6): 94-96% ^

Cc1ccnc2c1NC(=O)c1cccnc1N2C1CC1 [Nevirapine]
ORAL BIOAVAILABILITY ([1]; Table CYP3A4): 80-94% ^

CCCCC1=NC2(CCCC2)C(=O)N1Cc1ccc(-c2ccccc2-c2nnn[nH]2)cc1 [Irbesartan]
HALF LIFE ([2]; Table CYP2C9): 11 to 15 h | ORAL BIOAVAILABILITY ([1]; Table CYP2C9): 60-80% ^

CNC(=O)c1cc(Oc2ccc(NC(=O)Nc3ccc(Cl)c(C(F)(F)F)c3)cc2)ccn1 [sorafenib]
T½ [2]: 25 to 48 h | Protein binding % (plasma protein): 99.5% | F % [1]: 38-49%

Cc1cccc(C)c1OCC(C)N (stereo not shown) [Mexiletine]
HALF LIFE ([2]; Table CYP1A2): 10 to 12 h | HALF LIFE ([2]; Table CYP2D6): 6 to 17 h | ORAL BIOAVAILABILITY ([1]; Table CYP2D6): 80-90% ^

CN[C@@H](C)Cc1ccccc1 [Dextromethamphetamine]
HALF LIFE ([2]; Table CYP2D6): 12 h

CCC1(c2ccccc2)C(=O)NC(=O)N(C)C1=O (stereo not shown) [Methylphenobarbital]
HALF-LIFE ([2]; in vivo): 11 to 67 h

CCCN1CCCC[C@H]1C(=O)Nc1c(C)cccc1C [Ropivacaine]
HALF LIFE ([2]; Table CYP1A2): 5 to 7 h | ORAL BIOAVAILABILITY ([1]; Table CYP1A2, printed as IV): 87-98% - IV

COc1ccccc1OCCNCC(O)COc1cccc2[nH]c3ccccc3c12 (stereo not shown) [Carvedilol]
HALF LIFE ([2]; Table CYP2D6): 6 to 10 h | ORAL BIOAVAILABILITY ([1]; Table CYP2D6): 25-35% ^

CC/C(=C(\c1ccccc1)c1ccc(OCCN(C)C)cc1)c1ccccc1 [Tamoxifen]
HALF LIFE ([2]; Table CYP1A2): ~120 to 170 h | HALF LIFE ([2]; Table CYP2C9): 120 to 170 h | HALF LIFE ([2]; Table CYP2D6): 120 to 170 h

Cc1ccc(Nc2nccc(N(C)c3ccc4c(C)n(C)nc4c3)n2)cc1S(N)(=O)=O [pazopanib]
T½ [2]: 30.9 to 31.9 h | Protein binding % (plasma protein): >99.5% | F % [1]: 14-21%

COc1ccc(C(=O)Nc2ccccc2CCC2CCCCN2C)cc1 (stereo not shown) [Encainide]
HALF LIFE ([2]; Table CYP2D6): 11.3 h | ORAL BIOAVAILABILITY ([1]; Table CYP2D6): 25-90% ^

COCCCC/C(=N\OCCN)c1ccc(C(F)(F)F)cc1 [Fluvoxamine]
HALF LIFE ([2]; Table CYP1A2): ~14 to 16 h

Cn1c(=O)c2[nH]cnc2n(C)c1=O [Theophylline]
HALF LIFE ([2]; Table CYP1A2): 1.5 to 9.8 h

Fc1ccc([C@@H]2CCNC[C@H]2COc2ccc3c(c2)OCO3)cc1 [Paroxetine]
HALF LIFE ([2]; Table CYP2D6): 15 to 21 h

CC[C@H]1OC(=O)[C@H](C)[C@@H](O[C@H]2C[C@@](C)(OC)[C@@H](O)[C@H](C)O2)[C@H](C)[C@@H](O[C@@H]2O[C@H](C)C[C@H](N(C)C)[C@H]2O)[C@](C)(O)C[C@@H](C)C(=O)[C@H](C)[C@@H](O)[C@]1(C)O [Erythromycin]
ORAL BIOAVAILABILITY ([1]; Table CYP3A4): 30-65% ^

CCCc1nc(C)c2c(=O)[nH]c(-c3cc(S(=O)(=O)N4CCN(CC)CC4)ccc3OCC)nn12 [Vardenafil]
ORAL BIOAVAILABILITY ([1]; Table CYP3A4): 15-44% ^

CN1CCN2c3ccccc3Cc3ccccc3C2C1 (stereo not shown) [Mianserin]
ORAL BIOAVAILABILITY ([1]; Table CYP2D6): 20-30% ^

CC(C)C[C@H]1C(=O)N2CCC[C@H]2[C@]2(O)O[C@](NC(=O)[C@@H]3C=C4c5cccc6[nH]c(Br)c(c56)C[C@H]4N(C)C3)(C(C)C)C(=O)N12 [Bromocriptine]
ORAL BIOAVAILABILITY ([1]; Table CYP3A4): 65-95% ^

C=C[C@H]1C[N@@]2CC[C@H]1C[C@H]2[C@H](O)c1ccnc2ccc(OC)cc12 [Quinine]
ORAL BIOAVAILABILITY ([1]; Table CYP3A4): 76-88% ^

O=C1NC(=O)C(c2ccccc2)(c2ccccc2)N1 [Phenytoin]
HALF LIFE ([2]; Table CYP2C9): 14 to 22 h | ORAL BIOAVAILABILITY ([1]; Table CYP2C9): 20-90% ^

CN(C)CCc1c[nH]c2ccc(C[C@H]3COC(=O)N3)cc12 [Zolmirripran]
ORAL BIOAVAILABILITY ([1]; Table of Exemplary Drugs, CYP1A2): ~40%

CC(c1cc2ccccc2s1)N(O)C(N)=O (stereo not shown) [Zileuton]
HALF LIFE ([2]; Table CYP1A2): 2.5 to 3.2 h

CCC1=C(C)CN(C(=O)NCCc2ccc(S(=O)(=O)NC(=O)N[C@H]3CC[C@H](C)CC3)cc2)C1=O [Glimepiride]
HALF LIFE ([2]; Table CYP2C9): 5 to 9.2 h

CC(CN1c2ccccc2Sc2ccccc21)N(C)C (stereo not shown) [Promethazine]
HALF LIFE ([2]; Table CYP2D6): 16 to 19 h

CN(C/C=C/C#CC(C)(C)C)Cc1cccc2ccccc12 [Terbinafine]
HALF LIFE ([2]; Table CYP2C9): 22 to 26 h

Cc1nc2n(c(=O)c1CCN1CCC(c3noc4cc(F)ccc34)CC1)CCCC2 [Risperidone]
HALF LIFE ([2]; Table CYP2D6): 3 to 20 h

CN(C)CCC=C1c2ccccc2C=Cc2ccccc21 [Cyclobenzaprine]
HALF LIFE ([2]; Table CYP1A2): 8 to 37 h

C[C@@H](O[C@H]1OCCN(Cc2n[nH]c(=O)[nH]2)[C@H]1c1ccc(F)cc1)c1cc(C(F)(F)F)cc(C(F)(F)F)c1 [Aprepitant]
ORAL BIOAVAILABILITY ([1]; Table CYP3A4): 60-65% ^
